# Results from patent publication US20230414607A1, “METHODS OF TREATMENT” (BOW RIVER LLC, priority 2017, published 2023).
# Tested on: not listed separately
# Assay: AUC and Cmax target safe levels of CYP3A4 substrate drugs (Table 1)
# Conditions: component of ivacaftor/tezacaftor
# Description: In various embodiments, the “Target safe levels” are non-limiting examples of the upper limit of fold change or percent of baseline where in some embodiments the benefits of treating the patient for the condition or disease for which the CYP3A4 substrate drug is indicated outweigh the risks associated with the effects of a drug-drug interaction. […] For purposes of the present methods, the blood plasma levels measured during co-administration of the CYP3A4 substrate drug with […] may be used to estimate the posaconazole DDI decay curve, e.g., using equation 1.
"AUC target safe level, Fold change","AUC target safe level, Percent of baseline","Cmax target safe level, Fold change","Cmax target safe level, Percent of baseline",Compound
2.95; fold,295%;,2.47; fold,247%;,CC(C)(C)c1cc(C(C)(C)C)c(NC(=O)c2c[nH]c3ccccc3c2=O)cc1O [ivacaftor]

# Same assay, conditions: human
"AUC target safe level, Fold change","AUC target safe level, Percent of baseline","Cmax target safe level, Fold change","Cmax target safe level, Percent of baseline",Compound
2 fold,200%,1.7 fold,170%,C[C@H](Nc1ncnc2[nH]cnc12)c1cc2cccc(Cl)c2c(=O)n1-c1ccccc1 [duvelisib]
val: 2.2 fold,val: 220%,val: 1.6 fold,val: 160%,COc1cc2c(cc1OC)[C@H]1C[C@@H](OC(=O)[C@@H](N)C(C)C)[C@H](CC(C)C)CN1CC2 [valbenazine]
2.0 fold,200%,–,–,CC(C)(CO)c1cc2cc(NC(=O)C3(c4ccc5c(c4)OC(F)(F)O5)CC3)c(F)cc2n1C[C@@H](O)CO [tezacaftor]
2.2 fold,220%,1.77 fold,177%,COc1cccc(-c2c(C)n(Cc3c(F)cccc3C(F)(F)F)c(=O)n(C[C@H](NCCCC(=O)O)c3ccccc3)c2=O)c1F [elagolix sodium]
2.2 fold,220%,1.20 fold,120%,CCc1nc(C(N)=O)c(Nc2ccc(N3CCC(N4CCN(C)CC4)CC3)c(OC)c2)nc1NC1CCOCC1 [gilteritinib]
–,175%,–,–,C[C@@H]1CCN(C(=O)CC#N)C[C@@H]1N(C)c1ncnc2[nH]ccc12 [tofacitinib]
–,400%,–,–,CN(C)C(=O)N[C@H]1CC[C@H](CCN2CCN(c3cccc(Cl)c3Cl)CC2)CC1 [cariprazine]
–,300%,–,–,C=CC(=O)N1CCC[C@@H](n2nc(-c3ccc(Oc4ccccc4)cc3)c3c(N)ncnc32)C1 [ibrutinib]
3.5 fold,350%,–,–,CN(C(=O)c1ccccc1)[C@@H]1C[C@H]2O[C@@](C)([C@@H]1O)n1c3ccccc3c3c4c(c5c6ccccc6n2c5c31)C(=O)NC4 [CGP62221]
1.53 fold,153%,1.03 fold,103%,COc1c(OCCCN2CCOCC2)ccc2c1N=C(NC(=O)c1cnc(N)nc1)N1CCN=C21 [copanlisib]
1.34 fold,134%,1.05 fold,105%,COc1cc(OC)cc(N(CCNC(C)C)c2ccc3ncc(-c4cnn(C)c4)nc3c2)c1 [erdafitinib]
2.4 fold,240%,1.4 fold,140%,CN1CC[C@@H](NC(=O)Nc2ccc(C#N)cc2)C[C@@H]1c1nc2ccccc2[nH]1 [glasdegib]
1.91 fold,191%,1.33 fold,133%,N#CC[C@H](C1CCCC1)n1cc(-c2ncnc3[nH]ccc23)cn1 [ruxolitinib]
1.73 fold,173%,1.62 fold,162%,Cc1[nH]c2ccccc2c1CCNCc1ccc(/C=C/C(=O)NO)cc1 [panobinostat]

# Continued, compound first:
Compound,"AUC target safe level, Fold change","AUC target safe level, Percent of baseline","Cmax target safe level, Fold change","Cmax target safe level, Percent of baseline"
O=c1ccc2ccc(OCCCCN3CCN(c4cccc5sccc45)CC3)cc2[nH]1 [brexpiprazole],2 fold,200%,1.2 fold,120%
COc1cc2c(cc1OC)[C@H]1C[C@@H](O)[C@H](CC(C)C)CN1CC2 [[+]-α-HTBZ],2.1 fold,210%,1.7 fold,170%
CC(=O)OCC(=O)[C@@]12N=C(C)O[C@@H]1C[C@H]1[C@@H]3CCC4=CC(=O)C=C[C@]4(C)[C@H]3[C@@H](O)C[C@@]12C [deflazacort],3 fold,300%,–,–
CNC(=O)c1ccc(N2C(=S)N(c3cnc(C#N)c(C(F)(F)F)c3)C(=O)C23CCC3)cc1F [apalutamide],1.24 fold,124%,1.38 fold,138%
CC(C)COc1ccc(CNC(=O)N(Cc2ccc(F)cc2)C2CCN(C)CC2)cc1 [pimavanserin],3 fold,300%,1.5 fold,150%
CO[C@@H]1[C@H](N(C)C(=O)c2ccccc2)C[C@H]2O[C@]1(C)n1c3ccccc3c3c4c(c5c6ccccc6n2c5c31)C(=O)NC4 [midostaurin],10.4 fold,1040%,–,–

# Same assay, conditions: upper limit where benefits outweigh risks; approximation, can vary by about ±25%
"AUC target safe level, Fold change [fold]","AUC target safe level, Percent of baseline [%]","Cmax target safe level, Fold change [fold]","Cmax target safe level, Percent of baseline [%]",Compound
1.51,151,1.49,149,CCN(CC)CCNC(=O)c1c(C)[nH]c(/C=C2\C(=O)Nc3ccc(F)cc32)c1C [sunitinib]
1.7,170,1.4,140,O=C1CCc2ccc(OCCCCN3CCN(c4cccc(Cl)c4Cl)CC3)cc2N1 [aripiprazole]
3,300,2.7,270,CC(C)(C)c1cc(C(C)(C)C)c(NC(=O)c2c[nH]c3ccccc3c2=O)cc1O [ivacaftor]

Compound,"AUC target safe level, Fold change [fold]","AUC target safe level, Percent of baseline [%]","Cmax target safe level, Fold change [fold]","Cmax target safe level, Percent of baseline [%]"
CC(C)(NC(=O)C1=C(O)[C@@H]2Oc3c(O)ccc4c3[C@@]23CCN(CC2CC2)[C@H](C4)[C@]3(O)C1)c1nc(-c2ccccc2)no1 [naldemedine],1.9,190,1.38,138

# Target: CYP3A4 (Homo sapiens, UniProt P08684)
# Assay: not given
# Conditions: in vivo; cited from earlier work
# CYP3A4, sequence (P08684 whole entry): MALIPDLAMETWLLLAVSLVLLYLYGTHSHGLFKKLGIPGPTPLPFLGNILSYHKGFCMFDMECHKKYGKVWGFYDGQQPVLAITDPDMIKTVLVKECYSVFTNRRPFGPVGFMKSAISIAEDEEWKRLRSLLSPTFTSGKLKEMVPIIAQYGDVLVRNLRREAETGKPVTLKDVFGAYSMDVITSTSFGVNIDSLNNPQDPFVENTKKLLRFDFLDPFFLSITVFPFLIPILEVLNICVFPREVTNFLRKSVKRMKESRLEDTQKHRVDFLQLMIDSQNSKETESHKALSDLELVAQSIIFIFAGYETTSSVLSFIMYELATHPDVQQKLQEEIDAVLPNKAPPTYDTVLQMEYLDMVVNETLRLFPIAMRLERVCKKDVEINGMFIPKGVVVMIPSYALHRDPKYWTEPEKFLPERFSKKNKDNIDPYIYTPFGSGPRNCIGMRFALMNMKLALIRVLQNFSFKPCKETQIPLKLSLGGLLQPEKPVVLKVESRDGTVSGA
Compound,"AUC co-administration levels, Fold change","AUC co-administration levels, Percent of baseline","Cmax co-administration levels, Fold change","Cmax co-administration levels, Percent of baseline",elevation of baseline AUC when coadministered with posaconazole (percent of baseline) [%]
COC(=O)N[C@H](C(=O)N1CCC[C@H]1c1nc(-c2ccc3c(c2)O[C@@H](c2ccccc2)n2c-3cc3cc(-c4c[nH]c([C@@H]5CCCN5C(=O)[C@@H](NC(=O)OC)C(C)C)n4)ccc32)c[nH]1)C(C)C [elbasvir],EBR: 1.8; fold,180%;,1.29; fold,129%;,–
CO[C@H]1C(=O)[C@]2(C)[C@@H](OC)C[C@H]3OC[C@@]3(OC(C)=O)[C@H]2[C@H](OC(=O)c2ccccc2)[C@]2(O)C[C@H](OC(=O)[C@H](O)[C@@H](NC(=O)OC(C)(C)C)c3ccccc3)C(C)=C1C2(C)C [cabazitaxel],1.25 fold,125%,–,–,–
COC(=O)N[C@@H](C)CNc1nccc(-c2cn(C(C)C)nc2-c2cc(Cl)cc(NS(C)(=O)=O)c2F)n1 [encorafenib],3 fold,300%,1.45 fold,145%,300
Cc1cn(-c2cc(NC(=O)c3ccc(C)c(Nc4nccc(-c5cccnc5)n4)c3)cc(C(F)(F)F)c2)cn1 [nilotinib],3 fold,300%,–,–,–
CC1(C)CCC(CN2CCN(c3ccc(C(=O)NS(=O)(=O)c4ccc(NCC5CCOCC5)c([N+](=O)[O-])c4)c(Oc4cnc5[nH]ccc5c4)c3)CC2)=C(c2ccc(Cl)cc2)C1 [venetoclax],1.78 fold,178%,1.06 fold,106%,–
O=C(c1ccc(F)c(F)c1Nc1ccc(I)cc1F)N1CC(O)([C@@H]2CCCCN2)C1 [cobimetinib],6.7 fold,670%,3.2 fold,320%,–
CN(C)C(=O)c1cc2cnc(Nc3ccc(N4CCNCC4)cn3)nc2n1C1CCCC1 [ribociclib],3.2 fold,320%,1.7 fold,170%,–
C=C[C@@H]1C[C@]1(NC(=O)[C@@H]1C[C@@H]2CN1C(=O)[C@H](C(C)(C)C)NC(=O)O[C@@H]1C[C@H]1CCCCCc1nc3ccc(OC)cc3nc1O2)C(=O)NS(=O)(=O)C1CC1.O [grazoprevir],GZR: 3.02 fold,302%,1.13 fold,113%,–
C[C@H]1Oc2cc(cnc2N)-c2c(nn(C)c2C#N)CN(C)C(=O)c2ccc(F)cc21 [lorlatinib],1.42 fold,142%,1.24 fold,124%,–
N#C[C@@H]1C[C@@H]2C[C@@H]2N1C(=O)[C@@H](N)C12CC3CC(CC(O)(C3)C1)C2 [saxagliptin],3.67 fold,367%,2.44 fold,244%,–
